One may read the melting point as the temperature of the solid-liquid transition.

Consider 88 compounds from a melting point compilation (Tetko et al.; mined from patent text by program, amines drawn as free bases though some values may be those of a salt).

With `Cc1ccc2c(c1)C=Cc1cc(C)ccc1C2c1cn(Cc2ccc(C(=O)O)o2)c(=O)[nH]c1=S`, the melting point fell in the range of 290 to 292 °C.
Take `Cc1cc(CCCCCOc2ccc(C3=NCCO3)cc2C=CBr)on1`: the melting point lay within 94 to 96 °C.
As to `CCOC(=O)c1ccc(SC)cn1`, the melting point lay in the range of 44 to 46 °C.
With `O=C(NCCC1CCCCC1)c1c(Cl)ccc2nc(N3CCC(C(=O)O)CC3)ccc12`, the melting point lay within 253 to 256 °C.
`CCCC(C)(C)C(=O)NC1CCCNC(=O)C1` (stereo not drawn) had a melting point of 84 to 85 °C.
The compound `COC(=O)C1=C(C)NN=C(c2cccs2)C1c1ccccc1` (stereo not drawn) came in with a melting point of 194 °C.
In turn, `COc1cc(C(F)(F)F)nc(S(C)(=O)=O)n1` showed a melting point of 88 to 90 °C.
In the case of `CCOCc1nc2c(N)nc3cc(-c4cccnc4)ccc3c2n1Cc1ccc(CNC(=O)OC(C)(C)C)cc1` it was 196 to 197 °C.
On to `O=c1ncc(Cl)cn1Cc1ccccc1`, for which the melting point was 197 °C.
With `N#CCCN1CCC(COC(=O)c2cc(Cl)c(N)c3c2OCCO3)CC1`, the melting point lay in the range of 101 to 103 °C.
`CC(=O)Nc1ccc(-c2cccc(-c3nc(C(C)C)[nH]c3-c3cccc(C)n3)c2)cc1` registered a melting point of 140 to 145 °C.
`CCN(CC)c1ccc(-c2cc(-c3ccc(C(=O)O)cc3)ccc2CCCNC2CCCCC2)cc1C(C)(C)C`: the melting point was found to be 253 °C.
In the case of `CNC1([C@@H]2CCN(c3c(F)cc4c(=O)c(C(=O)O)cn([C@@H]5C[C@@H]5F)c4c3OC)C2)CC1` it was 208 to 209 °C; in that of `COc1cc(COc2nn(-c3ccccc3)cc2/C=C/P(=O)(OC(C)C)OC(C)C)ccc1OCc1nc(-c2ccco2)oc1C`, 152 to 153 °C.
In the case of `CC(C)(C)C(=O)OC1C(c2ccccc2)=C(c2ccc(S(C)(=O)=O)cc2)C1(C)C` (stereo not drawn), the melting point is 66 to 67 °C.
Regarding `Brc1ccc2cnncc2c1`, the melting point is 140 to 143 °C.
In the case of `CCOC(=O)C(=NOC)c1noc(N)n1` it was 143 to 146 °C; in that of `COC=C(C#CCON=C(C)c1cccc(C(F)(F)F)c1)C(=O)OC`, 57 to 58 °C; in that of `O=C(O)Cc1ccc(Cc2ccccc2CC(=O)O)cc1`, 155 to 156 °C.
Next, `Cc1nc(NC(=O)Nc2ccccc2)sc1C(=O)NCc1ccccc1`: > 300 °C.
In the case of `N#Cc1nn(-c2c(Cl)cc(C(F)(F)F)cc2Cl)cc1OC(F)(F)C(F)Cl` (racemic) it was 99 to 101 °C; in that of `CC(=O)Nc1ccc(OC(C)CN2CCN(CCc3ccc(C(=O)O)cc3)CC2)cc1` (stereo not drawn), 234 to 235 °C; in that of `C[C@H](NC(=O)c1c[nH]c2ncc(-c3ccc(C(=O)NC4CCOCC4)s3)nc12)C(C)(C)C`, 333 to 334 °C.
`COc1cc(OC)cc(-c2ncoc2-c2ccc3c(c2)NCCO3)c1` yielded a melting point of 175 to 178 °C.
Regarding `O=C1c2ccc(Br)cc2OCC1n1ccnc1` (stereo not drawn), the melting point lay within 201 to 203 °C.
In turn, `CCn1c(NC)nc(=O)c2ccccc21` returned a melting point of 262 to 264 °C.
`Cc1nc(-c2ccc(O)cc2)cc(-c2c(Cl)ccc(Cl)c2Cl)c1C#N` displayed a melting point of 191 to 195 °C.
Regarding `CC(C)(C)Cn1c(=O)c(=O)[nH]c2cc(Cl)c([N+](=O)[O-])cc21`, the melting point is 270 to 271 °C.
The compound `COC(=O)c1cncc(O)c1C(=O)OC` came in with a melting point of 136 to 137 °C.
For the compound `CCC(=O)OCC(=O)C1(OC(=S)CC)CCC2C3CC(C)C4=CC(=O)C=CC4(C)C3C(O)CC21C` (stereo not drawn), the melting point fell in the range of 117 to 119 °C.
In the case of `O=C(Nc1ccc2cc(CN3CCCC3)ccc2c1)N1CCC(c2ccc(Cl)cc2)CC1` it was 209 to 211 °C.
Compound `CCOC(=O)c1nc(Br)n2c1c(=O)n(C)c1cc(C(F)(F)F)ccc12` gave a melting point of 205 to 207 °C.
The compound `CCOC(=O)C=Cc1c(C)nc(SCc2ccc(OC)cc2)n1C` gave a melting point of 165 to 167 °C.
The compound `C=CC(=Cc1ccccc1)N(C)C` yielded a melting point of 72 to 74 °C.
As to `O=C(c1ccccc1)c1cccc(NC(=O)C(Cl)CCl)c1` (stereo not drawn), the melting point came out at 92 °C.
As to `COc1cc2c(=O)c(C)cn3c4cc(Br)ccc4c(c1)c23`, the melting point fell in the range of 201 to 204 °C.
As for `NS(=O)(=O)c1cc(Cc2ccccc2)c(O)c2ccccc12`, the melting point was 167 to 168 °C.
As for `O=C(Nc1ccccc1)NC1C(=O)Nc2ccccc2N(CC23CC4CC(CC(C4)C2)C3)C1=O` (stereo not drawn), the melting point was > 280 °C.
In turn, `COC(=O)c1sc2cncc(Oc3ccc(Cl)cc3)c2c1C` gave a melting point of 140 to 141 °C.
With `S=C(Cc1cccs1)N1CCCCC1`, the melting point lay in the range of 51.5 to 52 °C.
In the case of `O=c1[nH]c2ccccc2c(-c2ccccc2)c1-c1csc(-c2ccncc2)n1`, the melting point was > 250 °C.
For `Cc1c(NC(=O)c2ccc(C(C)(C)C)cc2)cccc1-c1cn(C)c(=O)c(Nc2ccc(C(C(=O)O)N(C)C(C)C)cc2)n1` (stereo not drawn), the melting point is 197 to 198 °C.
With `O=C1C(=Cc2ccccc2O)c2ccccc2N1C1=NCCS1`, the melting point was 196 to 197 °C.
Take `CC(C)N(C(=O)c1cc2ccccc2c(-c2ccccc2Cl)n1)C(C)C`: the melting point was 161 °C.
`CCOC(=O)C=Cc1cc(OC)c(OC)c([N+](=O)[O-])c1`: the melting point was in the range of 87 to 88 °C.
In the case of `CN(C)CCNC(=O)c1cn(C)c(=O)c2cc3ccccc3nc12` it was 192 to 194 °C; in that of `CCOC(=O)C1(c2ccccc2)CCN(C2CCC(C#N)(c3ccccn3)CC2)CC1` (stereo not drawn), 157 °C; in that of `COC(=O)C(F)=CCS(=O)(=O)c1ccccc1`, 104 to 105 °C.
In the case of `CN1C(=O)N(c2ccc(C#N)c(C(F)(F)F)c2)C(=O)C1(C)C` it was 158 °C.
`N#Cc1[nH]c2ccccc2c1-c1ccccc1`: the melting point lay in the range of 137 to 142 °C.
`CCc1nc(NC)sc1C(=O)c1ccc(N)c([N+](=O)[O-])c1` registered a melting point of 210 to 215 °C.
As to `CCOC(=O)c1c(C(F)F)nc(C(F)(F)F)c(C(=O)OCC)c1Cl`, the melting point is 35 to 40 °C.
As for `Cc1cc(-c2cc(C(F)(F)F)nn2-c2ccc(S(C)(=O)=O)cc2)ccc1-c1ccco1`, the melting point lay in the range of 174 to 176 °C.
Next, `Cn1nc(Br)c2c(=O)n3c(nc21)SCC3`: 205 to 206 °C; `CCOP(=O)(CCN1CCCCNc2c1c(=O)c2=O)OCC`: 103 to 105 °C; `COc1cccc(C(=CC2CCN(CCCCCCCCc3cccnc3)CC2)c2cccc(OC)c2)c1`: 112 to 115 °C.
Consider `CC(=O)OCc1ccc(Sc2ccccc2C(=O)O)c([N+](=O)[O-])c1`, for which the melting point was in the range of 150 to 151 °C.
Turning to `Cc1ccc2c(c1)N(CC(=O)NC(C)(C)C)C(=O)C(Br)CC2CC1CCCCC1` (stereo not drawn), the melting point lay within 166 to 170 °C.
`CCCCCOc1ccc(CCOc2ccc(/C=C(\OCC)C(=O)O)cc2OC)cc1` registered a melting point of 135 °C.
In the case of `COc1cc(CC(=O)Nc2ccc(C3(CC(=O)O)CCCC3)cc2)ccc1NC(=O)Nc1ccccc1C`, the melting point was 223 to 226 °C.
As to `OCC1OC(n2c(Cl)nc3c(Br)c(Br)ccc32)C(O)C1O` (stereo not drawn), the melting point lay within 167 to 169 °C.
`NC(Cc1nc2cc3ccccc3cc2nc1CP(=O)(O)O)C(=O)OCc1ccccc1` (stereo not drawn) yielded a melting point of 215 °C.
`CN(CCOc1ccc(CC(Oc2ccc(Cl)cc2)C(=O)O)cc1)c1nc2ccccc2o1` (stereo not drawn) showed a melting point of 164 to 165 °C.
On to `Nc1c(F)c(N2CCCC2)c(F)c2c1c(=O)c(C(=O)O)cn2C1COC1`, for which the melting point was in the range of 250 to 253 °C.
For `CN(C)CCON=C1c2ccccc2C2CC2c2ccccc21` (stereo not drawn), the melting point was 69 to 70 °C.
On to `O=c1[nH]c2ncc(-c3ccc(-c4nnc[nH]4)cc3)nc2n1CCN1CCOCC1`, for which the melting point is 295 to 297 °C.
Take `CCCc1nn(C)c2c(=O)[nH]c(-c3sccc3OCC)nc12`: the melting point lay in the range of 151 to 152 °C.
Consider `COc1cccc2c1nc(-c1c(F)cccc1F)n2Cc1ccccc1`, for which the melting point was 139 to 141 °C.
For `O=C(NC1=NN(c2ccc(C(=O)C(F)(F)F)cc2)C(c2ccccc2)C1)C(F)(F)F` (stereo not drawn), the melting point was 197 to 198 °C.
Next, `CCOC(=O)c1c(C)nc(Cl)c([N+](=O)[O-])c1NC(C)CC` (stereo not drawn): 33 to 35 °C.
Compound `COC(=O)c1ccccc1C(=O)c1ccc(CBr)cc1` returned a melting point of 88.2 to 91.5 °C.
Take `COc1ccc(O)c(C=O)c1OC`: the melting point was in the range of 53 to 54 °C.
As for `CC1=NC(C)(C)SC1=NOC(=O)N(C)SN(C)C(=O)F`, the melting point lay within 77 to 79 °C.
Next, `CCc1ccc2c(=O)cc(C(=O)O)[nH]c2c1`: 271 °C.
In turn, `CN1C[C@@H](C(=O)OCc2ccccc2)NC1=O` registered a melting point of 94 to 95 °C.
`CC(C)C(NS(=O)(=O)c1ccc(-c2ccc(NC(=O)c3cc4cc(Br)ccc4o3)cc2)cc1)C(=O)O` (stereo not drawn) came in with a melting point of 263 to 265 °C.
Next, `CCCCCCCCCCNC(=O)c1ccc(N)cc1`: 117 to 119 °C.
As to `COC(=O)c1ccc(=O)[nH]c1`, the melting point is 166 to 172 °C.
In turn, `COC(=O)C1=C(C)NC(C)=C(C(=O)OC/C=C/c2ccc(O)cc2)C1c1cccc([N+](=O)[O-])c1` (stereo not drawn) yielded a melting point of 138 to 139 °C.
Compound `CN1CCCCC1CCc1ccccc1NC(=O)c1ccc(Br)cc1` (stereo not drawn) showed a melting point of 138 °C.
As for `O=C(O)c1ccc(-c2cnc3[nH]c(=O)n(CC4CCCCC4)c3n2)cc1`, the melting point was > 350 °C.
On to `CC(C(=O)C=CC1C(OC(=O)c2ccccc2)CC2OC(=O)CC21)C1C=CCC1` (mixture of isomers), for which the melting point is 85 to 87.5 °C.
In turn, `CCCc1nc2c(N)nc3ccccc3c2n1CCCCC(=O)N(C)OC` had a melting point of 150 to 151 °C.
Compound `COc1ccc(Cl)cc1C(=O)N(CCCC(=O)O)c1ccc(OC)c(-c2ccccc2)c1` returned a melting point of 155 to 156 °C.
`CCOC(=O)N1CCN(C2Cc3cc(Cl)ccc3Sc3ccccc32)CC1` (stereo not drawn) came in with a melting point of 92 to 93 °C.
Turning to `C=CCn1c(-c2cccnc2)nn(CN2CCN(c3cccc4c3OCCO4)CC2)c1=S`, the melting point fell in the range of 122 to 127 °C.
`COc1ccc(Cn2c(=S)[nH]c(=O)c3[nH]cnc32)cc1OC1CCCC1` yielded a melting point of 254 to 265 °C.
Compound `Nc1nc(-n2cc(C(=O)O)c(=O)c3c(F)c(F)c(F)c(F)c32)c(F)cc1F` returned a melting point of 236 to 242 °C.
